From PubChem BioAssay (NCI) come the findings set out here.

Some test systems named below: ACHN renal; PC-3 prostate; A498 renal; EKVX NSCLC; NCI-H460 lung; HCT-15 colon; UACC-62 melanoma; CAKI-1 renal; SK-MEL-5 melanoma; HS 578T breast.
Holding throughout (assay): growth of human tumour cells (NCI), 48 h

Each structure is given as a SMILES string. “And” between values parts separate entries of the source, which are not always exact repeats. Equal values may be shown once.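 Exposure lasted 48 hours, with cells grown in 96-well plates and compounds tested at five concentrations. GI50 is the concentration that inhibits growth by half. TGI: concentration producing complete growth inhibition.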 Bounds are passed on as bounds.

For the compound `COc1ccccc1Oc1nccc(-c2c(-c3ccc(F)cc3)ncn2C2CCNCC2)n1`, the GI50 with ACHN renal was 15.4 µM; with PC-3 prostate, > 20.9 µM; in the assay on A498 renal it was > 25 µM; in the assay with EKVX NSCLC it was > 25 µM; in the assay with NCI-H460 lung, > 25 µM; in the assay on HCT-15 colon it was > 25 µM. Further, the GI50 with UACC-62 melanoma is > 25 µM; with CAKI-1 renal it was > 23.2 µM; in the assay on SK-MEL-5 melanoma, 7.2 µM; with HS 578T breast it was > 6.75 µM. Also, the TGI in the assay on ACHN renal, in the assay on PC-3 prostate, in the assay with A498 renal, with EKVX NSCLC, in the assay with NCI-H460 lung and in the assay on HCT-15 colon was > 25 µM in each case. Besides, the TGI in the assay on UACC-62 melanoma is > 25 µM; in the assay on CAKI-1 renal it was > 25 µM; with SK-MEL-5 melanoma, > 25 µM; in the assay with HS 578T breast, > 23 µM.

In the case of `CC(=O)O[C@H]1CC2C(C3CC[C@H](C(C)CCC(=O)O)[C@]31C)[C@H](OC(C)=O)C[C@@H]1CC3(CC[C@]21C)OOC1(CCC(C)CC1)OO3` (stereo not given in full), the TGI with ACHN renal is 15.8 µM and 9.72 µM; with PC-3 prostate it was 17.2 µM and 14.2 µM; with A498 renal, 28.6 µM and 29.8 µM; with EKVX NSCLC it was 4.9 µM and 2.9 µM; in the assay with NCI-H460 lung it was 16.7 µM and 7.64 µM; with HCT-15 colon it was 13.9 µM and 7.4 µM. The TGI in the assay on CAKI-1 renal is 19.1 µM and 6.49 µM; in the assay on SK-MEL-5 melanoma it was 20.1 µM and 12.5 µM; in the assay on HS 578T breast, 13.8 µM and 4.77 µM. The GI50 with CAKI-1 renal is 6.75 µM and 2.23 µM; in the assay with SK-MEL-5 melanoma, 7.2 µM and 3.39 µM.

On to `COCCOC1=C(Cl)C(=O)c2ccccc2C1=O`, for which the GI50 in the assay on ACHN renal was 1.88 µM; in the assay with PC-3 prostate, 2.18 µM; with A498 renal, 4.35 µM; with EKVX NSCLC, 3.51 µM; in the assay with NCI-H460 lung it was 3.34 µM; in the assay on HCT-15 colon, 2.88 µM. Further, the GI50 is 1.89 µM in the assay with UACC-62 melanoma, 2.83 µM in the assay on CAKI-1 renal, 1.82 µM in the assay on SK-MEL-5 melanoma and 2.94 µM with HS 578T breast. In addition, the TGI in the assay with ACHN renal is 3.59 µM; in the assay on PC-3 prostate, 5.55 µM; in the assay on A498 renal, 18.2 µM; in the assay on EKVX NSCLC it was 15.8 µM; with NCI-H460 lung, 17.3 µM; in the assay on HCT-15 colon it was 9.65 µM. Moreover, the TGI was 5.1 µM in the assay with UACC-62 melanoma, 9.83 µM with CAKI-1 renal, 3.51 µM in the assay on SK-MEL-5 melanoma and 12.7 µM in the assay with HS 578T breast.

Take `C=C(CN1CCc2[nH]c3ccc(F)cc3c2C1)c1ccc(C(=O)Nc2ccccc2N)cc1`: the GI50 is 3.33 µM in the assay on ACHN renal; 4.32 µM in the assay on PC-3 prostate; 1.5 µM in the assay with A498 renal; 5.06 µM in the assay with EKVX NSCLC; 3.98 µM in the assay on NCI-H460 lung; 3.17 µM in the assay on HCT-15 colon. Further, the GI50 with UACC-62 melanoma is 2.26 µM; in the assay on CAKI-1 renal, 1.93 µM; in the assay on SK-MEL-5 melanoma it was 0.502 µM; with HS 578T breast, 1.07 µM. In addition, the TGI in the assay with ACHN renal is 11.4 µM; in the assay on PC-3 prostate, 52.3 µM; in the assay with A498 renal, 4.62 µM; with EKVX NSCLC it was 19.7 µM; in the assay with NCI-H460 lung it was 17.2 µM; with HCT-15 colon, 12.6 µM. Moreover, the TGI with UACC-62 melanoma was found to be 5.9 µM; in the assay on CAKI-1 renal it was 5.91 µM; in the assay with SK-MEL-5 melanoma it was 1.83 µM; with HS 578T breast, 14.1 µM.

For the compound `CCCCCC(=O)O[C@]1(C(C)=O)CCC2C3CCC4=CC(=O)CC[C@]4(C)C3CC[C@@]21C` (stereo not given in full), the GI50 is 3 µM with ACHN renal; 1.64 µM with PC-3 prostate; 1.3 µM with A498 renal; 2.91 µM with EKVX NSCLC; 2.31 µM with NCI-H460 lung; 3.22 µM with HCT-15 colon. Moreover, the GI50 in the assay with UACC-62 melanoma is 1.63 µM; in the assay with CAKI-1 renal it was 1.75 µM; in the assay with SK-MEL-5 melanoma, 1.43 µM; in the assay with HS 578T breast, 0.421 µM. In addition, the TGI came to 11.6 µM in the assay on ACHN renal; 8.52 µM with PC-3 prostate; 3.88 µM in the assay on A498 renal; 20.2 µM with EKVX NSCLC; 8.59 µM in the assay on NCI-H460 lung; 12.6 µM in the assay with HCT-15 colon. For the same compound, the TGI in the assay with UACC-62 melanoma is 3.88 µM; with CAKI-1 renal, 8.22 µM; in the assay on SK-MEL-5 melanoma, 2.77 µM; in the assay with HS 578T breast, > 50.5 µM.

In the case of `CN1CCN(c2c(F)cc(NC3=C(Cl)C(=O)c4ncccc4C3=O)cc2F)CC1`, the GI50 was 1.61 µM in the assay on ACHN renal; 5.87 µM in the assay with PC-3 prostate; 13.4 µM in the assay with A498 renal; 14.9 µM with EKVX NSCLC; 18.1 µM with NCI-H460 lung; 1.82 µM with HCT-15 colon. Besides, the GI50 in the assay on UACC-62 melanoma is 14.8 µM; in the assay on CAKI-1 renal, 1.45 µM; with SK-MEL-5 melanoma, 15.2 µM; in the assay on HS 578T breast, 11.2 µM. The TGI in the assay with ACHN renal worked out at 2.96 µM; with PC-3 prostate, 21.1 µM; in the assay with A498 renal, 29.2 µM; in the assay with EKVX NSCLC, 33.4 µM; with NCI-H460 lung it was 36 µM; in the assay on HCT-15 colon, 4.09 µM. The TGI is 28 µM in the assay on UACC-62 melanoma, 2.77 µM with CAKI-1 renal, 28.8 µM with SK-MEL-5 melanoma and 56.4 µM in the assay with HS 578T breast.

As for `CCCCS(=O)c1sc2nc(-c3cccs3)cc(-c3ccccc3)c2c1N` (stereo not given), the GI50 with ACHN renal was 9.1 µM; with PC-3 prostate, 3.45 µM; with A498 renal, 8.02 µM; in the assay with EKVX NSCLC, 9.48 µM; in the assay on NCI-H460 lung, 13 µM; in the assay on HCT-15 colon, 9.02 µM. Further, the figures for the GI50 in the assay on CAKI-1 renal, in the assay with SK-MEL-5 melanoma and in the assay with HS 578T breast were 10.3 µM, 13.3 µM and 18.9 µM, respectively. In addition, the TGI was > 95.3 µM in the assay with ACHN renal; > 86.6 µM in the assay with PC-3 prostate; 76.9 µM in the assay on A498 renal; > 100 µM with EKVX NSCLC; > 96.8 µM with NCI-H460 lung; > 100 µM in the assay with HCT-15 colon. Moreover, the results for the TGI in the assay with CAKI-1 renal, with SK-MEL-5 melanoma and in the assay with HS 578T breast were > 100 µM, 28.3 µM and > 100 µM, respectively.

As for `COCCN(CCOC)c1nc(-c2ccccc2)nc2ccccc12`, the GI50 was 15.1 µM with PC-3 prostate; 30.1 µM in the assay on A498 renal; 38.8 µM in the assay with EKVX NSCLC; 20.8 µM in the assay with NCI-H460 lung; 18.2 µM with UACC-62 melanoma; 23.2 µM with CAKI-1 renal. In addition, the results for the GI50 with SK-MEL-5 melanoma and in the assay with HS 578T breast were 15.8 µM and 38.8 µM, respectively. The TGI was 43.7 µM in the assay on PC-3 prostate; 89.7 µM in the assay with A498 renal; > 100 µM with EKVX NSCLC; 79.2 µM in the assay on NCI-H460 lung; 34.9 µM in the assay on UACC-62 melanoma; 73.2 µM in the assay with CAKI-1 renal. Also, the TGI in the assay on SK-MEL-5 melanoma was 32.9 µM; with HS 578T breast, > 100 µM.
